assay: log P determination by HPLC (reversed-phase C18), EEC Directive 79/831 Annex V.A8; format: physicochemical; settings: pH 2.3; HPLC, reversed-phase C 18, 43° C., 0.1% aqueous phosphoric acid/acetonitrile; read-out: log P (pH 2.3)
Experimental: The stated log P values were determined in accordance with EEC Directive 79/831 Annex V.A8 by HPLC (High Performance Liquid Chromatography) using a reversed-phase column, (C 18). Temperature: 43° C. Mobile phases for the determination in the acidic range: 0.1% aqueous phosphoric acid, acetonitrile; linear gradient from 10% acetonitrile to 90% acetonitrile. Calibration was carried out using unbranched alkan-2-ones (having 3 to 16 carbon atoms) with known logP values (determination of the logP values by the retention times using linear interpolation between two successive alkanones).

Structure (SMILES) | chromatographic logP
CCOC(=O)NCc1nccc(-c2ccccn2)n1 [Example 8, ethyl [4-(2-pyridinyl)-2-pyrimidinyl]methylcarbamate] | 1.14

same assay, conditions: reversed-phase C18 HPLC column; pH 2.3; HPLC, reversed-phase C 18, 43° C., 0.1% aqueous phosphoric acid/acetonitrile; read-out: log P (pH 2.3)

chromatographic logP | Structure (SMILES)
2.73 | CN(C(=O)CSc1nccc(-c2ccccn2)n1)c1ccc(Cl)cc1 [Example 3, N-(4-chlorophenyl)-N-methyl-2-{[4-(2-pyridinyl)-2-pyrimidinyl]thio}acetamide]
3.01 | CC(C)COC(=O)c1cccc(NC(=O)NCCOC(=O)CSc2nccc(-c3ccccn3)n2)c1 [Example 149]
2.93 | O=C(CSc1nccc(-c2ccccn2)n1)NCc1ccc(SC(F)(F)F)cc1 [Example 37]
3.06 | CC(OC(=O)CSc1nccc(-c2ccccn2)n1)C(F)(F)F (stereo not shown) [Example 121]
2.51 | CCOC(=O)CSc1nccc(-c2nccc3ccccc23)n1 [Example 298]
1.94 | O=C(CSc1nccc(-c2ccccn2)n1)NCc1ccc2c(c1)OCO2 [Example 52]
2.58 | O=C(CSc1nccc(-c2ccccn2)n1)NCCc1ccc(Cl)cc1 [Example 51]
2.34 | CCOCCOC(=O)CSc1nccc(-c2ccccn2)n1 [Example 98]
4.95 | CCOC(=O)c1cc(NC(=O)NCCOC(=O)CSc2nccc(-c3ccccn3)n2)ccc1Cl [Example 150]
1.4 | CN(C=O)CCOC(=O)CSc1nccc(-c2ccccn2)n1 [Example 217]
2.69 | O=C(CSc1nccc(-c2ccccn2)n1)OCC(F)(F)F [Example 117]
3.05 | COCC(C)(C)COC(=O)CSc1nccc(-c2ccccn2)n1 [Example 190]
3.84 | COC(=O)C(Cc1cccc(Cl)c1)Sc1nccc(-c2ccccn2)n1 (stereo not shown) [Example 27]
2.66 | CC(C)(F)COC(=O)CSc1nccc(-c2ccccn2)n1 [Example 196]
2.55 | CCOC(=O)C(F)Sc1nccc(-c2ccccn2)n1 (stereo not shown) [Example 113]
2.21 | COC(=O)CCCOC(=O)CSc1nccc(-c2ccccn2)n1 [Example 200]
1.11 | NC(=O)COC(=O)CSc1nccc(-c2ccccn2)n1 [Example 163]
3.22 | O=C(CSc1nccc(-c2ccccn2)n1)NCc1cc(C(F)(F)F)cc(C(F)(F)F)c1 [Example 137]
1.79 | Cc1scnc1CCOC(=O)CSc1nccc(-c2ccccn2)n1 [Example 197]

chromatographic logP | Structure (SMILES)
2.29 | O=C(CSc1nccc(-c2ccccn2)n1)OCCCl [Example 126]
2.58 | O=C(CSc1nccc(-c2ccccn2)n1)Nc1ccc(Cl)cc1 [Example 33]
3.48 | CCOC(=O)CSc1nccc(-c2ccc(C(F)(F)F)cn2)n1 [Example 257]
2.78 | CSC(C)COC(=O)CSc1nccc(-c2ccccn2)n1 (stereo not shown) [Example 203]
2.56 | Cc1ccc(CCNC(=O)CSc2nccc(-c3ccccn3)n2)cc1 [Example 56]
0.69 | NC(=O)CSc1nccc(-c2ccccn2)n1 [Example 29]
2.81 | COC(=O)CSc1nc(-c2ccccn2)cc(-c2ccccn2)n1 [Example 101]
2.25 | O=C(CSc1nccc(-c2ccccn2)n1)OCC(F)F [Example 116]
2.92 | CCOC(=O)/C=C/CSc1nccc(-c2ccccn2)n1 [Example 30]
2.28 | Cc1c(NC(=O)CSc2nccc(-c3ccccn3)n2)cccc1[N+](=O)[O-] [Example 313]
2.72 | O=C(CSc1nccc(-c2ccccn2)n1)NCc1ccccc1OC(F)(F)F [Example 39]
1.8 | CCN(CC)C(=O)CSc1nccc(-c2ccccn2)n1 [Example 28]
2.2 | CCC1(COC(=O)CSc2nccc(-c3ccccn3)n2)CCO1 (stereo not shown) [Example 198]
1.97 | CCNC(=O)COC(=O)CSc1nccc(-c2ccccn2)n1 [Example 231]
1.02 | Cn1ccnc1COC(=O)CSc1nccc(-c2ccccn2)n1 [Example 201]
2.42 | O=C(CSc1nccc(-c2ccccn2)n1)NCc1ccc(F)c(Cl)c1 [Example 48]
2.13 | COC(=O)CCSc1nccc(-c2ccccn2)n1 [Example 78]
1.64 | O=C(CSc1nccc(-c2ccccn2)n1)OCC1CCC(=O)O1 (stereo not shown) [Example 206]

Second part, the molecule before the results:

Structure (SMILES) | chromatographic logP
CCOC(=O)CSc1nccc(-c2ncccc2OC)n1 [Example 268] | 1.34
CC(=O)OC(C)C(C)OC(=O)CSc1nccc(-c2ccccn2)n1 (stereo not shown) [Example 246] | 2.54
CCOC(=O)CCCOC(=O)CSc1nccc(-c2ccccn2)n1 [Example 84] | 2.72
CCOC(=O)CSc1nccc(-c2ncccc2C)n1 [Example 265] | 1.85
CCOC(=O)CSc1nccc(-c2cc(OC)ccn2)n1 [Example 261] | 1.62
COC(=O)CSc1nc(-c2ccc(OC)cc2)cc(-c2ccccn2)n1 [Example 107] | 3.5
CC1CN(C(=O)CSc2nccc(-c3ccccn3)n2)CC(C)O1 (stereo not shown) [Example 60] | 1.94
Cc1noc(C)c1CCOC(=O)CSc1nccc(-c2ccccn2)n1 [Example 252] | 2.25
CC(C)(C)OC(=O)CCCOC(=O)CSc1nccc(-c2ccccn2)n1 [Example 94] | 3.48
CCCCCCCCCCOC(=O)CSc1nccc(-c2ccccn2)n1 [Example 85] | 6.15
O=C(CSc1nccc(-c2ccccn2)n1)OC1CCCCC1 [Example 21] | 3.53
CCOC(=O)CSc1nccc(-c2ccc(CC)cn2)n1 [Example 254] | 2.98
CCOC(=O)CSc1nccc(-c2cc(CC)ccn2)n1 [Example 259] | 2.69
CCOC(=O)CSc1nccc(-c2cc(C(C)(C)C)ccn2)n1 [Example 316] | 3.55
O=C(CSc1nccc(-c2ccccn2)n1)OCC1CCCCC1 [Example 159] | 4
CCOC(=O)C(C)OC(=O)CSc1nccc(-c2ccccn2)n1 (stereo not shown) [Example 22] | 2.58
CSc1nccc(-c2ccccn2)n1 [2-(methylthio)-4-(2-pyridinyl)pyrimidine] | 1.93
CCOC(=O)C(C)Sc1nccc(-c2ccccn2)n1 (stereo not shown) [Example 2, ethyl-2-{[4-(2-pyridinyl)-2-pyrimidinyl]thio}-propanoate] | 2.74
CC(C)(C)C(=O)OCCNC(=O)NCCCOC(=O)CSc1nccc(-c2ccccn2)n1 [Example 129] | 2.51
O=C(CSc1nccc(-c2ccccn2)n1)OCCCN1CCCC1=O [Example 165] | 1.64
CC(=O)OCCCCCOC(=O)CSc1nccc(-c2ccccn2)n1 [Example 93] | 2.82
CC(C)/C=N/CCOC(=O)CSc1nccc(-c2ccccn2)n1 [Example 191] | 2.02
CCOC(=O)CSc1nccc(-c2ccc([N+](=O)[O-])cn2)n1 [Example 306] | 2.77
CC(C)NC(=O)OCCOC(=O)CSc1nccc(-c2ccccn2)n1 [Example 245] | 2.19
CN1CCC(COC(=O)CSc2nccc(-c3ccccn3)n2)O1 (stereo not shown) [Example 220] | 1.12
CS(=O)(=O)c1nccc(-c2ccccn2)n1 [2-(methylsulphonyl)-4-(2-pyridinyl)pyrimidine] | 0.99

Reference: patent US7238697B2, “Pyridylpyrimidines for use as pesticides” (Bayer CropScience AG, priority 2001, dated 2007)
